The text below walks through data of patent publication US20250326771A1, “PIPERAZINE DERIVATIVES USEFUL IN HIV THERAPY” (VIIV HEALTHCARE COMPANY, priority 2022, published 2025).

Experiment [1] concerns Jurkat HIV-luciferase clones. Nature of the experiment: Jurkat latency reversal assay. It counts as cell-based. As to conditions: Homo sapiens, 48 h; Jurkat latency reversal assay potency; read-out: Jurkat pEC50 (converted). Summed up:
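Latency reversal was scored as provirus-driven luciferase luminescence in pooled Jurkat HIV-luc clones after 48 h compound exposure at 37° C. EC50 and maximal activation over vehicle were fitted with a four-parameter logistic model.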

In a further experiment the target is cIAP1-BIR3 (Homo sapiens (Human), UniProt Q13490). Nature of the experiment: BIR binding assay (FRET competition), cIAP1 BIR3. As to conditions: for cIAP1 BIR3 vs BIR2 separation window: fold separation (FS) for cIAP1. Summed up: (§1)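 Compounds tested as 15-point, 3-fold series displacing 200 nM AlexaFluor647-labelled SMAC peptide from His-tagged BIR domain (cIAP1-BIR3 50 nM; cIAP1-BIR2 and cIAP2-BIR2 325 nM; XIAP-BIR3 100 nM), pH 7.4, 60 min. Eu-W1024 (2 nM) added 30 min; emission ratio fitted for IC50.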

A further experiment addresses cIAP1-BIR2 (Homo sapiens (Human), UniProt Q13490). Nature of the experiment: BIR binding assay (FRET competition), cIAP1 BIR2. Summed up:
as §1

The target in a further experiment is cIAP2-BIR3 (Homo sapiens (Human), UniProt Q13489). Nature of the experiment: BIR binding assay (FRET competition), cIAP2 BIR3. As to conditions: for cIAP2 BIR3 vs BIR2 separation window: fold separation (FS) for cIAP2.
Another experiment concerns the target cIAP2-BIR2 (Homo sapiens (Human), UniProt Q13489). Nature of the experiment: BIR binding assay (FRET competition), cIAP2 BIR2. The method in brief: as §1
A further experiment deals with XIAP-BIR3 (Homo sapiens (Human), UniProt P98170). Nature of the experiment: BIR binding assay (FRET competition), XIAP BIR3. The conditions noted are these: for XIAP BIR3 vs BIR2 separation window: fold separation (FS) for XIAP. Summed up:
as §1

The next experiment concerns the target XIAP-BIR2 (Homo sapiens (Human), UniProt P98170). Nature of the experiment: BIR binding assay (FRET competition), XIAP BIR2. The conditions noted are these: read-out: XIAP BIR2 (pIC50) (converted). The method in brief:
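Competitive TR-FRET used His-tagged XIAP-BIR2 (200 nM) and 200 nM AlexaFluor647-labelled AVPIAQKSE SMAC peptide in HEPES buffer pH 7.4 with CHAPS, glycerol and DTT, incubated 60 min before 30 min with 2 nM Eu-W1024. The 615/665 nm ratio from a 15-point, 3-fold series was fit with a four-parameter model for IC50/pIC50.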

Molecules are shown by their SMILES. Like-named read-outs stand apart in the source and are kept apart here.

Sequence of cIAP2-BIR2 (Q13489 158-242): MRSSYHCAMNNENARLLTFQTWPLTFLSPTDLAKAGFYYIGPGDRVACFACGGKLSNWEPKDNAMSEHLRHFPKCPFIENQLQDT
Sequence of XIAP-BIR3 (P98170 241-356): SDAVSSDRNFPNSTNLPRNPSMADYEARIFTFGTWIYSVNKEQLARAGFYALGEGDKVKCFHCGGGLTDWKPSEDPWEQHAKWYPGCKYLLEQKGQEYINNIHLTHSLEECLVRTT
Sequence of cIAP1-BIR2 (Q13490 173-257): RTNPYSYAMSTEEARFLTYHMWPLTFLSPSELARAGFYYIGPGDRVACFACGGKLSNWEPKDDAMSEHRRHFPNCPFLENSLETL
Sequence of cIAP1-BIR3 (Q13490 253-363): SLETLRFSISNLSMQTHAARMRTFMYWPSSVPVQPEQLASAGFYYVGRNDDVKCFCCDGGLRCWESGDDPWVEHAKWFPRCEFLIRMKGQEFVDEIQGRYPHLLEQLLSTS
Sequence of XIAP-BIR2 (P98170 124-240): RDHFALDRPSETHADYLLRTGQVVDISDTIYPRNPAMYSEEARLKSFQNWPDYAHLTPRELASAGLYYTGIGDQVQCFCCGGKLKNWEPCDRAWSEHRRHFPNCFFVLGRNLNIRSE
Sequence of cIAP2-BIR3 (Q13489 238-349): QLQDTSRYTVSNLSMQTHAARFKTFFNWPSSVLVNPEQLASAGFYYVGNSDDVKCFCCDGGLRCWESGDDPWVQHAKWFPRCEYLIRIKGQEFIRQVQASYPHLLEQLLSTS

For the compound `C[C@@H]1CN(CC(=O)N2CC(C)(C)c3[nH]c(=O)c(Cc4ccc(F)cc4)cc32)[C@@H](CN2CCN(C(=O)COCCOCCOCC(=O)N3CCN(C[C@H]4CN[C@H](C)CN4CC(=O)N4CC(C)(C)c5[nH]c(=O)c(Cc6ccc(F)cc6)cc54)[C@H](C)C3)C[C@H]2C)CN1` (stereo in doubt) [Example 6, 1,1′-(2,2′-((3R,3′R,6R,6′R)-(((2R,2′R)-(2,2′-((oxybis(ethane-2,1-diyl))bis(oxy))bis(acetyl))bis(2-methylpiperazine-4,1-diyl))bis(methylene))bis(3-methylpiperazine-6,1-diyl))bis(acetyl))bis(6-(4-fluorobenzyl)-3,3-dimethyl-1,2,3,4-tetrahydro-5H-pyrrolo[3,2-b]pyridin-5-one)], in experiment [1], the EC50 was 63.1 to 316 nM. Further, the IC50 at cIAP1-BIR3 is 1.38 to 7.94 nM; at cIAP1-BIR2 it was 22.4 to 1000 nM; at cIAP2-BIR3, 1.38 to 7.94 nM; at cIAP2-BIR2 it was 22.4 to 1000 nM; at XIAP-BIR3, 1.38 to 7.94 nM; on XIAP-BIR2 (FRET competition binding), 10 to 51.3 µM. In addition, the “cIAP1 BIR3 vs BIR2 separation window” value at cIAP1-BIR3 is recorded as “+++ (10,000>FS>1,000)”. Moreover, at cIAP2-BIR3, the “cIAP2 BIR3 vs BIR2 separation window” value was “+++ (10,000>FS>1,000)”. At XIAP-BIR3, the “XIAP BIR3 vs BIR2 separation window” value is “++++ (FS>10,000)”.

For the compound `C[C@@H]1CN(CC(=O)N2CC(C)(C)c3[nH]c(=O)c(Cc4ccc(F)cc4)cc32)[C@@H](CN2CCN(C(=O)c3ccnc(-c4cc(C(=O)N5CCN(C[C@H]6CN[C@H](C)CN6CC(=O)N6CC(C)(C)c7[nH]c(=O)c(Cc8ccc(F)cc8)cc76)[C@H](C)C5)ccn4)c3)C[C@H]2C)CN1` [Example 23, 1,1′-(2,2′-((3R,3′R,6R,6′R)-(((2R,2′R)-([2,2′-bipyridine]-4,4′-dicarbonyl)bis(2-methylpiperazine-4,1-diyl))bis(methylene))bis(3-methylpiperazine-6,1-diyl))bis(acetyl))bis(6-(4-fluorobenzyl)-3,3-dimethyl-1,2,3,4-tetrahydro-5H-pyrrolo[3,2-b]pyridin-5-one)], the EC50 in experiment [1] is 63.1 to 316 nM. Moreover, the IC50 on cIAP1-BIR3 was 1.38 to 7.94 nM; on cIAP1-BIR2, 1000 to 3160 nM; on cIAP2-BIR3, 1.38 to 7.94 nM; at cIAP2-BIR2 it was 1000 to 3160 nM; on XIAP-BIR3 it was 1.38 to 7.94 nM; on XIAP-BIR2 (FRET competition binding), 10 to 51.3 µM.

Regarding `C[C@@H]1CN(CC(=O)N2CC(C)(C)c3[nH]c(=O)c(Cc4ccc(F)cc4)cc32)[C@@H](CN2CCN(C(=O)c3cccnc3-c3ncccc3C(=O)N3CCN(C[C@H]4CN[C@H](C)CN4CC(=O)N4CC(C)(C)c5[nH]c(=O)c(Cc6ccc(F)cc6)cc54)[C@H](C)C3)C[C@H]2C)CN1` [Example 17, 1,1′-(2,2′-((3R,3′R,6R,6′R)-(((2R,2′R)-([2,2′-bipyridine]-3,3′-dicarbonyl)bis(2-methylpiperazine-4,1-diyl))bis(methylene))bis(3-methylpiperazine-6,1-diyl))bis(acetyl))bis(6-(4-fluorobenzyl)-3,3-dimethyl-1,2,3,4-tetrahydro-5H-pyrrolo[3,2-b]pyridin-5-one)], in experiment [1], the EC50 was 316 to 3310 nM. The IC50 on cIAP1-BIR3 was 1.38 to 7.94 nM; on cIAP1-BIR2 it was 22.4 to 1000 nM; on cIAP2-BIR3, 1.38 to 7.94 nM; on cIAP2-BIR2 it was 22.4 to 1000 nM; at XIAP-BIR3 it was 1.38 to 7.94 nM; on XIAP-BIR2 (FRET competition binding), 10 to 51.3 µM. For the same compound, the “cIAP1 BIR3 vs BIR2 separation window” value on cIAP1-BIR3 is “++ (1,000>FS>100)”. Besides, the “cIAP2 BIR3 vs BIR2 separation window” value on cIAP2-BIR3 is “++ (1,000>FS>100)”. For the same compound, the “XIAP BIR3 vs BIR2 separation window” value at XIAP-BIR3 is “++++ (FS>10,000)”.

Take `C[C@@H]1CN(CC(=O)N2CC(C)(C)c3[nH]c(=O)c(Cc4ccc(F)cc4)cc32)[C@@H](CN2CCO[C@H](C(=O)NCCOCCNC(=O)[C@@H]3CN(C[C@H]4CN[C@H](C)CN4CC(=O)N4CC(C)(C)c5[nH]c(=O)c(Cc6ccc(F)cc6)cc54)CCO3)C2)CN1` [Compound 138, (2S,2′S)-N,N′-(oxybis(ethane-2,1-diyl))bis(4-(((2R,5R)-1-(2-(6-(4-fluorobenzyl)-3,3-dimethyl-5-oxo-2,3,4,5-tetrahydro-1H-pyrrolo[3,2-b]pyridin-1-yl)-2-oxoethyl)-5-methylpiperazin-2-yl)methyl)morpholine-2-carboxamide)]: the EC50 in experiment [1] was 63.1 to 316 nM. The IC50 at cIAP1-BIR3 was 1.38 to 7.94 nM; at cIAP1-BIR2, 1000 to 3160 nM; on cIAP2-BIR3, 1.38 to 7.94 nM; at cIAP2-BIR2 it was 1000 to 3160 nM; on XIAP-BIR3 it was 7.94 to 15.8 nM; at XIAP-BIR2 (FRET competition), 10 to 51.3 µM. In addition, the “cIAP1 BIR3 vs BIR2 separation window” value on cIAP1-BIR3 is “+++ (10,000>FS>1,000)”. The “cIAP2 BIR3 vs BIR2 separation window” value on cIAP2-BIR3 is recorded as “+++ (10,000>FS>1,000)”. The “XIAP BIR3 vs BIR2 separation window” value at XIAP-BIR3 is reported as “++++ (FS>10,000)”.

With `C[C@@H]1CN(CC(=O)N2CC(C)(C)c3[nH]c(=O)c(Cc4ccc(F)cc4)cc32)[C@@H](CN2CCO[C@H](C(=O)Nc3cccc(NC(=O)[C@@H]4CN(C[C@H]5CN[C@H](C)CN5CC(=O)N5CC(C)(C)c6[nH]c(=O)c(Cc7ccc(F)cc7)cc65)CCO4)c3)C2)CN1` [Compound 140, (2S,2′S)-N,N′-(1,3-phenylene)bis(4-(((2R,5R)-1-(2-(6-(4-fluorobenzyl)-3,3-dimethyl-5-oxo-2,3,4,5-tetrahydro-1H-pyrrolo[3,2-b]pyridin-1-yl)-2-oxoethyl)-5-methylpiperazin-2-yl)methyl)morpholine-2-carboxamide)], the EC50 in experiment [1] is 63.1 to 316 nM. For the same compound, the IC50 at cIAP1-BIR3 was 7.94 to 15.8 nM; at cIAP1-BIR2 it was 1000 to 3160 nM; on cIAP2-BIR3, 7.94 to 15.8 nM; on cIAP2-BIR2, 1000 to 3160 nM; on XIAP-BIR3 it was 15.8 to 31.6 nM; on XIAP-BIR2 (FRET competition) it was 10 to 51.3 µM. Moreover, on cIAP1-BIR3, the “cIAP1 BIR3 vs BIR2 separation window” value was “+++ (10,000>FS>1,000)”. The “cIAP2 BIR3 vs BIR2 separation window” value on cIAP2-BIR3 is “+++ (10,000>FS>1,000)”. Further, the “XIAP BIR3 vs BIR2 separation window” value at XIAP-BIR3 is on record as “++++ (FS>10,000)”.

For the compound `C[C@@H]1CN(CC(=O)N2CC(C)(C)c3[nH]c(=O)c(Cc4ccc(F)cc4)cc32)[C@@H](CN2CCO[C@H](COc3ccc(C#N)c(OC[C@@H]4CN(C[C@H]5CN[C@H](C)CN5CC(=O)N5CC(C)(C)c6[nH]c(=O)c(Cc7ccc(F)cc7)cc65)CCO4)c3)C2)CN1` [Example 77, 2,4-bis(((S)-4-(((2R,5R)-1-(2-(6-(4-fluorobenzyl)-3,3-dimethyl-5-oxo-2,3,4,5-tetrahydro-1H-pyrrolo[3,2-b]pyridin-1-yl)-2-oxoethyl)-5-methylpiperazin-2-yl)methyl)morpholin-2-yl)methoxy)benzonitrile], in experiment [1], the EC50 was 12.6 to 63.1 nM. Besides, the IC50 was 1.38 to 7.94 nM on cIAP1-BIR3; 1000 to 3160 nM on cIAP1-BIR2; 1.38 to 7.94 nM at cIAP2-BIR3; 1000 to 3160 nM at cIAP2-BIR2; 15.8 to 31.6 nM at XIAP-BIR3; 10 to 51.3 µM on XIAP-BIR2 (FRET competition binding). Besides, the “cIAP1 BIR3 vs BIR2 separation window” value at cIAP1-BIR3 is listed as “+++ (10,000>FS>1,000)”. The “cIAP2 BIR3 vs BIR2 separation window” value at cIAP2-BIR3 is recorded as “+++ (10,000>FS>1,000)”. For the same compound, the “XIAP BIR3 vs BIR2 separation window” value on XIAP-BIR3 is “++++ (FS>10,000)”.

For `C[C@@H]1CN(CC(=O)N2CC(C)(C)c3[nH]c(=O)c(Cc4ccc(F)cc4)cc32)[C@@H](CN2CCO[C@H](COc3ccc(OC[C@@H]4CN(C[C@H]5CN[C@H](C)CN5CC(=O)N5CC(C)(C)c6[nH]c(=O)c(Cc7ccc(F)cc7)cc65)CCO4)cc3)C2)CN1` [Example 70, 1,1′-(2,2′-((3R,3′R,6R,6′R)-(((2S,2'S)-((1,4-phenylenebis(oxy))bis(methylene))bis(morpholine-2,4-diyl))bis(methylene))bis(3-methylpiperazine-6,1-diyl))bis(acetyl))bis(6-(4-fluorobenzyl)-3,3-dimethyl-1,2,3,4-tetrahydro-5H-pyrrolo[3,2-b]pyridin-5-one)], the EC50 in experiment [1] was 0.49 to 12.6 nM. The IC50 at cIAP1-BIR3 was 15.8 to 31.6 nM; at cIAP1-BIR2, 1000 to 3160 nM; at cIAP2-BIR3, 7.94 to 15.8 nM; at cIAP2-BIR2, 1000 to 3160 nM; at XIAP-BIR3, 15.8 to 31.6 nM; on XIAP-BIR2 (FRET competition binding) it was 10 to 51.3 µM. At cIAP1-BIR3, the “cIAP1 BIR3 vs BIR2 separation window” value is given as “+++ (10,000>FS>1,000)”. Moreover, the “cIAP2 BIR3 vs BIR2 separation window” value at cIAP2-BIR3 was “+++ (10,000>FS>1,000)”. In addition, the “XIAP BIR3 vs BIR2 separation window” value at XIAP-BIR3 was “++++ (FS>10,000)”.
